Data reported in US10138275B2, “Crystalline powder of cyclic peptide compound, preparation method for same, and uses thereof” (SHANGHAI TECHWELL BIOPHARMACEUTICAL CO., LTD, priority 2014, dated 2018).
Starred links: 1 amine or outer side, 2 acyl side, 3 side chain; linkers in the order of their positions; H or OH if unused. Positions of bridges follow the written chain, without caps; N, C: chain ends. Non-standard residues stand in square brackets, D forms with d. Residues, ends and D or L forms follow the SMILES beside them. *: point of attachment. hTyr(3S-OH,4S-OH,3'-OSO3H) = N[C@H](C(=O)O)[C@H](O)[C@@H](O)c1ccc(O)c(OS(=O)(=O)O)c1; Orn(4R-OH,5R-OH) = O=C([C@H](C[C@@H](O)[C@@H](O)N[*:3])N[*:1])[*:2]; Pro(3S-OH,4S-Me) = C[C@H]1CN[C@H](C(=O)O)[C@H]1O; X1 = CCCCCOc1ccc(-c2cc(-c3ccc(C(=O)*)cc3)no2)cc1; Gln(3R-OH) = NC(=O)C[C@@H](O)[C@H](N)C(=O)O; Hyp = O=C(O)[C@@H]1C[C@@H](O)CN1

Assays:
Assay type in all cases: physicochemical
[1] = Particle size distribution (d10, d50) by Malvern particle size analyzer / laser diffraction; conditions: after drying
Experimental: […] Wherein, d10 and d50 are means known for indicating the particle size distribution. d50 refers to a value of particle size, and the size of 50 vol/% of particles is smaller than said value. D10 refers to a value of particle size, and the size of 10 vol/% of particles is smaller than said value. The preferred method for determining d10 and d50 is laser diffraction, d50 of the crystalline powder of the compound of formula I according to the present invention is determined as 10-100 um, and d10 is determined as 1-9 um. Preferably, d50 of the crystalline powder is 20-50 um, and d10 thereof is 1-5 um. Before solid-liquid separation, d50 of the crystalline powder of the compound of formula I is 10-100 um, and d10 thereof is 1-9 um. Preferably, d50 of the crystalline powder is 20-50 um, and d10 thereof is 3-6 um.

[2] = Bulk density of powder by cylinder measurement; conditions: after drying
Experimental: “Bulk density of powder” is a measurement standard for the relative importance of the interaction between microparticles by comparing the bulk density and tapped density of the powder. Methods for measuring bulk density of powder are known in the art; for example, it can be determined by cylinder measurement, volumetric measurement, and container measurement. Bulk density of the crystalline powder of the compound of formula I according to the present invention is determined as less than 0.7 g/mL, preferably less than 0.6 g/mL, most preferably less than 0.5 g/mL, by cylinder measurement.

[3] = Ratio of dry weight to wet weight (Dry/Wet) of filtered solids; conditions: wet solids weighed after filtration, before drying
Text: As used herein, the term “Dry/Wet” and “ratio of dry weight to wet weight” can be used interchangeably, both of which refer to the ratio of the weight of a compound without solvent(s) to the weight of the compound with solvent(s). In the present invention, wet weight of crystals is obtained by filtering the crystallized solids until no noticeable droplet outflows and weighing the solids.

[4] = Vacuum-drying at 25° C. with a water system until no organic solvent detected by GC; purity by HPLC; conditions: for time Needed (for drying): 25° C., vacuum-drying with a water system until no organic solvent detected by GC; for Purity before drying / Purity after drying: HPLC; for Purity before drying: 5 g of solids; for Purity after drying: vacuum-dried at 25° C. with a water system until no organic solvent detected by GC
Text: High performance liquid chromatography (HPLC) is a common method for determining the purity of a compound, wherein a liquid is used as the mobile phase and a high-pressure transfusion system is used for pumping the mobile phase, such as single solvents with different polarities, a mixture of solvents at different proportions, or buffers, into a column packed with a stationary phase. Each component is separated in the column, and then enters into a detector for detection, thereby analyzing a sample. In the present invention, HPLC is used for determining the purity of the compound of formula I and studying the stability of a sample. Conditions of the HPLC method are listed as follows:
Analysis Column: YMC-ODS 250×4.6 mm, 5 μm;
Mobile phase: acetonitrile:phosphate buffer (pH 3.0)=45:70;
Column temperature: 35° C.;
Diluent: aqueous phosphate buffer;
Detection wavelength: 210 nm;
Gas chromatography (GC) used to separate and measure trace impurities in a compound is an accurate, qualitative and quantitative method of analysis. In the present invention, the content of organic solvents in the crystalline powder of the compound of formula I obtained in the present invention is measured by gas chromatography (GC).
5 g of solids were prepared according to the methods of Examples 2-10 and Comparative Examples 1-3 respectively, placed at 25° C., and vacuum-dried together with a water system until no organic solvent was detected through GC. The time for drying was compared, and the purity of the sample was analyzed.

SMILES	d10, particle size of the crystalline powder [1]	d50, particle size of the crystalline powder [1]	Bulk density [2]	ratio of dry weight to wet weight (Dry/Wet) [3]	time Needed (for drying) [4]	Purity before drying [4]	Purity after drying [4]
CCCCCOc1ccc(-c2cc(-c3ccc(C(=O)N[C@H]4C[C@@H](O)[C@@H](O)NC(=O)[C@@H]5[C@@H](O)[C@@H](C)CN5C(=O)[C@H]([C@H](O)CC(N)=O)NC(=O)[C@H]([C@H](O)[C@@H](O)c5ccc(O)c(OS(=O)(=O)[O-])c5)NC(=O)[C@@H]5C[C@@H](O)CN5C(=O)[C@H]([C@@H](C)O)NC4=O)cc3)no2)cc1.[Na+] [Example 8] (X1-[Orn(4R-OH,5R-OH)]T[Hyp][hTyr(3S-OH,4S-OH,3'-OSO3H)][Gln(3R-OH)][Pro(3S-OH,4S-Me)]; lactam 1-C)	2.6 um	18.7 um	0.38 g/mL	0.45	6 h	99.52%	99.46%
CCCCCOc1ccc(-c2cc(-c3ccc(C(=O)N[C@H]4C[C@@H](O)[C@@H](O)NC(=O)[C@@H]5[C@@H](O)[C@@H](C)CN5C(=O)[C@H]([C@H](O)CC(N)=O)NC(=O)[C@H]([C@H](O)[C@@H](O)c5ccc(O)c(OS(=O)(=O)[O-])c5)NC(=O)[C@@H]5C[C@@H](O)CN5C(=O)[C@H]([C@@H](C)O)NC4=O)cc3)no2)cc1.[Na+] [Example 2] (X1-[Orn(4R-OH,5R-OH)]T[Hyp][hTyr(3S-OH,4S-OH,3'-OSO3H)][Gln(3R-OH)][Pro(3S-OH,4S-Me)]; lactam 1-C)	3 um	31.9 um	0.45 g/mL	0.45	7 h	99.68%	99.68%
CCCCCOc1ccc(-c2cc(-c3ccc(C(=O)N[C@H]4C[C@@H](O)[C@@H](O)NC(=O)[C@@H]5[C@@H](O)[C@@H](C)CN5C(=O)[C@H]([C@H](O)CC(N)=O)NC(=O)[C@H]([C@H](O)[C@@H](O)c5ccc(O)c(OS(=O)(=O)[O-])c5)NC(=O)[C@@H]5C[C@@H](O)CN5C(=O)[C@H]([C@@H](C)O)NC4=O)cc3)no2)cc1.[Na+] [Example 10] (X1-[Orn(4R-OH,5R-OH)]T[Hyp][hTyr(3S-OH,4S-OH,3'-OSO3H)][Gln(3R-OH)][Pro(3S-OH,4S-Me)]; lactam 1-C)	8.3 um	100 um	0.56 g/mL	0.63	9 h	99.5%	99.43%
CCCCCOc1ccc(-c2cc(-c3ccc(C(=O)N[C@H]4C[C@@H](O)[C@@H](O)NC(=O)[C@@H]5[C@@H](O)[C@@H](C)CN5C(=O)[C@H]([C@H](O)CC(N)=O)NC(=O)[C@H]([C@H](O)[C@@H](O)c5ccc(O)c(OS(=O)(=O)[O-])c5)NC(=O)[C@@H]5C[C@@H](O)CN5C(=O)[C@H]([C@@H](C)O)NC4=O)cc3)no2)cc1.[Na+] [Example 6] (X1-[Orn(4R-OH,5R-OH)]T[Hyp][hTyr(3S-OH,4S-OH,3'-OSO3H)][Gln(3R-OH)][Pro(3S-OH,4S-Me)]; lactam 1-C)		48.7 um	0.49 g/mL	0.6	8.5 h	99.61%	99.6%
CCCCCOc1ccc(-c2cc(-c3ccc(C(=O)N[C@H]4C[C@@H](O)[C@@H](O)NC(=O)[C@@H]5[C@@H](O)[C@@H](C)CN5C(=O)[C@H]([C@H](O)CC(N)=O)NC(=O)[C@H]([C@H](O)[C@@H](O)c5ccc(O)c(OS(=O)(=O)[O-])c5)NC(=O)[C@@H]5C[C@@H](O)CN5C(=O)[C@H]([C@@H](C)O)NC4=O)cc3)no2)cc1.[Na+] [Example 7] (X1-[Orn(4R-OH,5R-OH)]T[Hyp][hTyr(3S-OH,4S-OH,3'-OSO3H)][Gln(3R-OH)][Pro(3S-OH,4S-Me)]; lactam 1-C)	1 um	10 um	0.6 g/mL	0.69	9.5 h	99.65%	99.57%
CCCCCOc1ccc(-c2cc(-c3ccc(C(=O)N[C@H]4C[C@@H](O)[C@@H](O)NC(=O)[C@@H]5[C@@H](O)[C@@H](C)CN5C(=O)[C@H]([C@H](O)CC(N)=O)NC(=O)[C@H]([C@H](O)[C@@H](O)c5ccc(O)c(OS(=O)(=O)[O-])c5)NC(=O)[C@@H]5C[C@@H](O)CN5C(=O)[C@H]([C@@H](C)O)NC4=O)cc3)no2)cc1.[Na+] [Example 3] (X1-[Orn(4R-OH,5R-OH)]T[Hyp][hTyr(3S-OH,4S-OH,3'-OSO3H)][Gln(3R-OH)][Pro(3S-OH,4S-Me)]; lactam 1-C)	3.7 um	43.1 um	0.43 g/mL	0.52	6.5 h	99.63%	99.61%
CCCCCOc1ccc(-c2cc(-c3ccc(C(=O)N[C@H]4C[C@@H](O)[C@@H](O)NC(=O)[C@@H]5[C@@H](O)[C@@H](C)CN5C(=O)[C@H]([C@H](O)CC(N)=O)NC(=O)[C@H]([C@H](O)[C@@H](O)c5ccc(O)c(OS(=O)(=O)[O-])c5)NC(=O)[C@@H]5C[C@@H](O)CN5C(=O)[C@H]([C@@H](C)O)NC4=O)cc3)no2)cc1.[Na+] [Example 9] (X1-[Orn(4R-OH,5R-OH)]T[Hyp][hTyr(3S-OH,4S-OH,3'-OSO3H)][Gln(3R-OH)][Pro(3S-OH,4S-Me)]; lactam 1-C)	1.3 um	20 um	0.54 g/mL	0.62	8.5 h	99.42%	99.38%
CCCCCOc1ccc(-c2cc(-c3ccc(C(=O)N[C@H]4C[C@@H](O)[C@@H](O)NC(=O)[C@@H]5[C@@H](O)[C@@H](C)CN5C(=O)[C@H]([C@H](O)CC(N)=O)NC(=O)[C@H]([C@H](O)[C@@H](O)c5ccc(O)c(OS(=O)(=O)[O-])c5)NC(=O)[C@@H]5C[C@@H](O)CN5C(=O)[C@H]([C@@H](C)O)NC4=O)cc3)no2)cc1.[Na+] [Example 4] (X1-[Orn(4R-OH,5R-OH)]T[Hyp][hTyr(3S-OH,4S-OH,3'-OSO3H)][Gln(3R-OH)][Pro(3S-OH,4S-Me)]; lactam 1-C)	5.1 um	50 um	0.55 g/mL	0.61	9 h	99.64%	99.64%
